According to the supplement of paper PMC4449167:
± gives the standard deviation of the averaged measurements.

System: WB-F344
Assay: gap junctional intercellular communication (dye spread) relative to vehicle control (fraction of control); higher = more gap junction communication (less inhibition)
Description: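 Confluent WB-F344 rat liver epithelial cells were pretreated with vehicle, D609 (PC-PLC inhibitor, 50 µM, 20 min), U0126 (MEK1/2 inhibitor, 20 µM, 30 min) or resveratrol (100 µM, 15 min), then exposed to a GJIC-dysregulating chemical at the listed dose and time. GJIC was measured by scalpel loading-dye transfer with Lucifer Yellow (3 min), and the dye-spread area was quantified in ImageJ as a fraction of the vehicle control (FOC). Individual values come from at least 3 independent experiments.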

[1] = pretreatment: D609+GJIC dysreg.
[2] = pretreatment: U0126+GJIC dysreg.

SMILES | gap junctional intercellular communication [1] | gap junctional intercellular communication (pretreatment: GJIC dysreg.) | gap junctional intercellular communication (pretreatment: RES+GJIC dysreg.) | gap junctional intercellular communication [2] | gap junctional intercellular communication (dose note: (30 uM), pretreatment: D609+GJIC dysreg.) | gap junctional intercellular communication (dose note: (30 uM), pretreatment: GJIC dysreg.) | gap junctional intercellular communication (dose note: (30 uM), pretreatment: RES+GJIC dysreg.) | gap junctional intercellular communication (dose note: (30 uM), pretreatment: U0126+GJIC dysreg.) | gap junctional intercellular communication (dose note: (50 uM), pretreatment: D609+GJIC dysreg.) | gap junctional intercellular communication (dose note: (50 uM), pretreatment: GJIC dysreg.) | gap junctional intercellular communication (dose note: (50 uM), pretreatment: RES+GJIC dysreg.) | gap junctional intercellular communication (dose note: (50 uM), pretreatment: U0126+GJIC dysreg.)
Cl[C@H]1[C@H](Cl)[C@@H](Cl)[C@@H](Cl)[C@H](Cl)[C@H]1Cl [Lindane] (compound abbreviation / co-treatment: Lindane, exposure (dose, time): 60 µM, 25 min) | 0.335 ± 0.046 | 0.282 ± 0.062 | 0.741 ± 0.048 | 0.695 ± 0.16 |  |  |  |  |  |  |  | 
Oc1c(Cl)c(Cl)c(Cl)c(Cl)c1Cl [Pentachlorophenol] (compound abbreviation / co-treatment: PCP, exposure (dose, time): 50 µM, 10 min) | 0.335 ± 0.068 | 0.282 ± 0.055 | 0.387 ± 0.14 | 0.336 ± 0.023 |  |  |  |  |  |  |  | 
O=C(O)C(F)(F)C(F)(F)C(F)(F)C(F)(F)C(F)(F)C(F)(F)C(F)(F)C(F)(F)C(F)(F)F [Perfluorodecanoic acid] (compound abbreviation / co-treatment: PFDA, exposure (dose, time): 50 µM, 20 min) | 0.46 ± 0.12 | 0.22 ± 0.033 | 0.225 ± 0.023 | 0.239 ± 0.046 |  |  |  |  |  |  |  | 
O=S(=O)(O)C(F)(F)C(F)(F)C(F)(F)C(F)(F)C(F)(F)C(F)(F)C(F)(F)C(F)(F)F [Perfluorooctanesulfonic acid] (compound abbreviation / co-treatment: PFOSA, exposure (dose, time): 40 µM, 20 min) | 0.287 ± 0.045 | 0.279 ± 0.041 | 0.329 ± 0.097 | 0.289 ± 0.037 |  |  |  |  |  |  |  | 
O=C(O)C(F)(F)C(F)(F)C(F)(F)C(F)(F)C(F)(F)C(F)(F)C(F)(F)F [Perfluorooctanoic acid] (compound abbreviation / co-treatment: PFOA, exposure (dose, time): 80 µM, 10 min) | 0.661 ± 0.15 | 0.24 ± 0.054 | 0.743 ± 0.12 | 0.44 ± 0.12 |  |  |  |  |  |  |  | 
c1cc2ccc3cccc4ccc(c1)c2c34 [Pyrene] (compound abbreviation / co-treatment: Pyr, exposure (dose, time): 70 µM, 10 min) | 0.844 ± 0.084 | 0.375 ± 0.078 | 0.802 ± 0.099 | 0.376 ± 0.061 |  |  |  |  |  |  |  | 
CC(C)C[C@H](NC(=O)[C@H](CC(C)C)NC(=O)[C@H](Cc1ccccc1)NC(=O)[C@@H](N)CO)C(=O)N[C@@H](CCCN=C(N)N)C(=O)N[C@@H](CC(N)=O)C(=O)O [Thrombin receptor activator peptide-6] (compound abbreviation / co-treatment: TRAP-6, exposure (dose, time): 50 µM, 30 min) | 0.588 ± 0.089 | 0.4 ± 0.058 | 0.967 ± 0.04 | 1.05 ± 0.036 |  |  |  |  |  |  |  | 
CC1(C)[C@@H](O)CC[C@]2(C)[C@H]3C(=O)C=C4[C@@H]5C[C@@](C)(C(=O)O)CC[C@]5(C)CC[C@@]4(C)[C@]3(C)CC[C@@H]12 [ß-Glycyrrhetinic acid] (compound abbreviation / co-treatment: BGA, exposure (dose, time): 30-50 µM, 15 min) |  |  |  |  | 0.242 ± 0.036 | 0.353 ± 0.03 | 0.302 ± 0.023 | 0.344 ± 0.053 | 0.225 ± 0.034 | 0.242 ± 0.042 | 0.243 ± 0.038 | 0.269 ± 0.028
